Assays:
[1] = system: Echinochloa oryzoides (Ard.) Fritsch.; test: Postemergence weed control under flooded paddy conditions, ECHORC (Watergrass (Calif.)); format: in vivo; settings: rated three to four weeks after treatment
Cyperus iria [2] = test: Preemergence weed control under flooded paddy conditions, CYPIR (Rice Flatsedge); format: in vivo; settings: flooded paddy; for herbicidal effect rating, CYPIR: preemergence, rated three to four weeks after treatment; for CYPIR: preemergence weeds, herbicidal effect rating 0-9, three to four weeks after treatment; as to herbicidal effect rating, CYPIR: meaning of each grade not given here
[3] = system: Oryza sativa, (L.) Tebonnet; test: Rice tolerance to post-transplant applications under flooded paddy conditions (Example 188), ORYSAT (Rice, Tebonnet); settings: rated three to four weeks after treatment
[4] = system: Echinochloa oryzoides (Ard.) Fritsch.; test: Preemergence weed control under flooded paddy conditions, ECHORC (Watergrass (Calif.)); format: in vivo; settings: flooded paddy; for herbicidal effect rating, ECHORC: preemergence, rated three to four weeks after treatment; for ECHORC: preemergence weeds, herbicidal effect rating 0-9, three to four weeks after treatment; as to herbicidal effect rating, ECHORC: meaning of each grade not given here
[5] = system: Monochoria vaginalis, Presl.; test: Preemergence weed control under flooded paddy conditions, MOOVA (Monochoria); format: in vivo; settings: flooded paddy; for herbicidal effect rating, MOOVA: preemergence, rated three to four weeks after treatment; for MOOVA: preemergence weeds, herbicidal effect rating 0-9, three to four weeks after treatment; as to herbicidal effect rating, MOOVA: meaning of each grade not given here
Sagittaria pygmaea, L. [6] = test: Preemergence weed control under flooded paddy conditions, SAGPY (Arrowhead (Pygmaea)); format: in vivo; settings: flooded paddy; for herbicidal effect rating, SAGPY: preemergence, rated three to four weeks after treatment; for SAGPY: preemergence weeds, herbicidal effect rating 0-9, three to four weeks after treatment; as to herbicidal effect rating, SAGPY: meaning of each grade not given here
[7] = system: Monochoria vaginalis, Presl.; test: Postemergence weed control under flooded paddy conditions, MOOVA (Monochoria); format: in vivo; settings: rated three to four weeks after treatment
[8] = system: Cyperus serotinus, Rottb.; test: Preemergence weed control under flooded paddy conditions, CYPSE (Flatsedge); format: in vivo; settings: for herbicidal effect rating, CYPSE: preemergence, rated three to four weeks after treatment; for CYPSE: preemergence weeds, herbicidal effect rating 0-9, three to four weeks after treatment; as to herbicidal effect rating, CYPSE: meaning of each grade not given here
[9] = system: Oryza sativa, (L.) Tebonnet; test: Rice tolerance to post-transplant applications under flooded paddy conditions (Example 187), ORYSAT (Rice, Tebonnet); settings: for herbicidal effect rating, ORYSAT (rice tolerance): rated three to four weeks after treatment; for ORYSAT: herbicidal effect rating 0-9, three to four weeks after treatment
[10] = system: Cyperus serotinus, Rottb.; test: Postemergence weed control under flooded paddy conditions, CYPSE (Flatsedge); format: in vivo; settings: rated three to four weeks after treatment
Cyperus iria [11] = test: Postemergence weed control under flooded paddy conditions, CYPIR (Rice Flatsedge); format: in vivo; settings: rated three to four weeks after treatment
Sagittaria pygmaea, L. [12] = test: Postemergence weed control under flooded paddy conditions, SAGPY (Arrowhead (Pygmaea)); format: in vivo; settings: rated three to four weeks after treatment

COC(=O)COc1ccc(C)cc1-c1nsc2ccc(-n3c(=O)cc(C(F)(F)F)n(C)c3=O)cc12 [Example 2, Methyl {{2-{5-[3,6-dihydro-3-methyl-4-(trifluoromethyl)-2,6-dioxo-1(2H)-pyrimidinyl]-1,2-benzisothiazol-3-yl}-p-tolyl}oxy}acetate]
4.0: herbicidal effect rating, ECHORC ([1]; Rate 0.0313 kg/ha) | herbicidal effect rating, ECHORC ([1]; Rate 0.0625 kg/ha) | herbicidal effect rating, SAGPY (Sagittaria pygmaea, L. [6]; 0.2500 kg/ha) | herbicidal effect rating, SAGPY (Sagittaria pygmaea, L. [12]; Rate 0.5000 kg/ha)
3.0: herbicidal effect rating, ORYSAT (rice tolerance) ([3]; Rate 0.1250 kg/ha) | herbicidal effect rating, ORYSAT (rice tolerance) ([9]; 0.0625 kg/ha) | herbicidal effect rating, ORYSAT (rice tolerance) ([9]; 0.1250 kg/ha)
5.0: herbicidal effect rating, ORYSAT (rice tolerance) ([9]; 0.2500 kg/ha)
2.0: herbicidal effect rating, ORYSAT (rice tolerance) ([3]; Rate 0.0313 kg/ha) | herbicidal effect rating, ORYSAT (rice tolerance) ([3]; Rate 0.0625 kg/ha) | herbicidal effect rating, SAGPY (Sagittaria pygmaea, L. [6]; 0.1250 kg/ha) | herbicidal effect rating, ORYSAT (rice tolerance) ([9]; 0.0313 kg/ha) | herbicidal effect rating, SAGPY (Sagittaria pygmaea, L. [12]; Rate 0.2500 kg/ha)
8.0: herbicidal effect rating, CYPIR (Cyperus iria [2]; 0.0313 kg/ha) | herbicidal effect rating, ORYSAT (rice tolerance) ([3]; Rate 0.5000 kg/ha)
9.0: herbicidal effect rating, ECHORC ([1]; Rate 0.2500 kg/ha) | herbicidal effect rating, ECHORC ([1]; Rate 0.5000 kg/ha) | herbicidal effect rating, CYPIR (Cyperus iria [2]; 0.0625 kg/ha) | herbicidal effect rating, CYPIR (Cyperus iria [2]; 0.1250 kg/ha) | herbicidal effect rating, CYPIR (Cyperus iria [2]; 0.2500 kg/ha) | herbicidal effect rating, CYPIR (Cyperus iria [2]; 0.5000 kg/ha) | herbicidal effect rating, ECHORC ([4]; 0.0313 kg/ha) | herbicidal effect rating, ECHORC ([4]; 0.0625 kg/ha) | herbicidal effect rating, ECHORC ([4]; 0.1250 kg/ha) | herbicidal effect rating, ECHORC ([4]; 0.2500 kg/ha) | herbicidal effect rating, ECHORC ([4]; 0.5000 kg/ha) | herbicidal effect rating, MOOVA ([5]; 0.0625 kg/ha) | herbicidal effect rating, MOOVA ([5]; 0.1250 kg/ha) | herbicidal effect rating, MOOVA ([5]; 0.2500 kg/ha) | herbicidal effect rating, MOOVA ([5]; 0.5000 kg/ha) | herbicidal effect rating, SAGPY (Sagittaria pygmaea, L. [6]; 0.5000 kg/ha) | herbicidal effect rating, MOOVA ([7]; Rate 0.0313 kg/ha) | herbicidal effect rating, MOOVA ([7]; Rate 0.0625 kg/ha) | herbicidal effect rating, MOOVA ([7]; Rate 0.1250 kg/ha) | herbicidal effect rating, MOOVA ([7]; Rate 0.2500 kg/ha) | herbicidal effect rating, MOOVA ([7]; Rate 0.5000 kg/ha) | herbicidal effect rating, ORYSAT (rice tolerance) ([9]; 0.5000 kg/ha) | herbicidal effect rating, CYPIR (Cyperus iria [11]; Rate 0.0313 kg/ha) | herbicidal effect rating, CYPIR (Cyperus iria [11]; Rate 0.0625 kg/ha) | herbicidal effect rating, CYPIR (Cyperus iria [11]; Rate 0.1250 kg/ha) | herbicidal effect rating, CYPIR (Cyperus iria [11]; Rate 0.2500 kg/ha) | herbicidal effect rating, CYPIR (Cyperus iria [11]; Rate 0.5000 kg/ha)
0.0: herbicidal effect rating, SAGPY (Sagittaria pygmaea, L. [6]; 0.0313 kg/ha) | herbicidal effect rating, SAGPY (Sagittaria pygmaea, L. [6]; 0.0625 kg/ha) | herbicidal effect rating, CYPSE ([8]; 0.0313 kg/ha) | herbicidal effect rating, CYPSE ([8]; 0.0625 kg/ha) | herbicidal effect rating, CYPSE ([8]; 0.1250 kg/ha) | herbicidal effect rating, CYPSE ([8]; 0.2500 kg/ha) | herbicidal effect rating, CYPSE ([8]; 0.5000 kg/ha) | herbicidal effect rating, CYPSE ([10]; Rate 0.0313 kg/ha) | herbicidal effect rating, CYPSE ([10]; Rate 0.0625 kg/ha) | herbicidal effect rating, CYPSE ([10]; Rate 0.1250 kg/ha) | herbicidal effect rating, CYPSE ([10]; Rate 0.2500 kg/ha) | herbicidal effect rating, CYPSE ([10]; Rate 0.5000 kg/ha) | herbicidal effect rating, SAGPY (Sagittaria pygmaea, L. [12]; Rate 0.0313 kg/ha) | herbicidal effect rating, SAGPY (Sagittaria pygmaea, L. [12]; Rate 0.0625 kg/ha) | herbicidal effect rating, SAGPY (Sagittaria pygmaea, L. [12]; Rate 0.1250 kg/ha)
7.0: herbicidal effect rating, ECHORC ([1]; Rate 0.1250 kg/ha) | herbicidal effect rating, ORYSAT (rice tolerance) ([3]; Rate 0.2500 kg/ha) | herbicidal effect rating, MOOVA ([5]; 0.0313 kg/ha)

CCC(C#N)(CC)c1nsc2ccc(-n3c(=O)cc(C(F)(F)F)n(C)c3=O)cc12 [Example 445, 1,2-Benzisothiazole-3-acetonitrile, 5-[3,6-dihydro-3-methyl-2,6-dioxo-4-(trifluoromethyl)-1(2H)-pyrimidinyl]-alpha,alpha-diethyl-]
0.0: herbicidal effect rating, MOOVA ([7]; Rate 0.0320 kg/ha) | herbicidal effect rating, MOOVA ([7]; Rate 0.0620 kg/ha) | herbicidal effect rating, CYPSE ([10]; Rate 0.0320 kg/ha) | herbicidal effect rating, SAGPY (Sagittaria pygmaea, L. [12]; Rate 0.0320 kg/ha) | herbicidal effect rating, SAGPY (Sagittaria pygmaea, L. [12]; Rate 0.0620 kg/ha)
5.0: ORYSAT ([9]; 0.0320 kg/ha)
8.5: ECHORC ([4]; 0.0320 kg/ha) | ECHORC ([4]; 0.0620 kg/ha) | SAGPY (Sagittaria pygmaea, L. [6]; 0.1250 kg/ha) | CYPSE ([8]; 0.0620 kg/ha) | CYPSE ([8]; 0.2500 kg/ha)
9.0: herbicidal effect rating, ECHORC ([1]; Rate 0.1250 kg/ha) | herbicidal effect rating, ECHORC ([1]; Rate 0.2500 kg/ha) | CYPIR (Cyperus iria [2]; 0.1250 kg/ha) | CYPIR (Cyperus iria [2]; 0.2500 kg/ha) | ECHORC ([4]; 0.1250 kg/ha) | ECHORC ([4]; 0.2500 kg/ha) | MOOVA ([5]; 0.0320 kg/ha) | MOOVA ([5]; 0.0620 kg/ha) | MOOVA ([5]; 0.1250 kg/ha) | MOOVA ([5]; 0.2500 kg/ha) | SAGPY (Sagittaria pygmaea, L. [6]; 0.2500 kg/ha) | herbicidal effect rating, MOOVA ([7]; Rate 0.2500 kg/ha) | herbicidal effect rating, CYPIR (Cyperus iria [11]; Rate 0.1250 kg/ha) | herbicidal effect rating, CYPIR (Cyperus iria [11]; Rate 0.2500 kg/ha) | herbicidal effect rating, SAGPY (Sagittaria pygmaea, L. [12]; Rate 0.2500 kg/ha)
6.5: CYPIR (Cyperus iria [2]; 0.0320 kg/ha) | ORYSAT ([9]; 0.0620 kg/ha)
6.0: herbicidal effect rating, ORYSAT (rice tolerance) ([3]; Rate 0.0620 kg/ha)
8.0: CYPIR (Cyperus iria [2]; 0.0620 kg/ha) | SAGPY (Sagittaria pygmaea, L. [6]; 0.0620 kg/ha) | CYPSE ([8]; 0.1250 kg/ha) | ORYSAT ([9]; 0.2500 kg/ha)
4.0: herbicidal effect rating, ECHORC ([1]; Rate 0.0320 kg/ha) | herbicidal effect rating, CYPSE ([10]; Rate 0.1250 kg/ha) | herbicidal effect rating, CYPSE ([10]; Rate 0.2500 kg/ha) | herbicidal effect rating, CYPIR (Cyperus iria [11]; Rate 0.0320 kg/ha) | herbicidal effect rating, SAGPY (Sagittaria pygmaea, L. [12]; Rate 0.1250 kg/ha)
4.5: SAGPY (Sagittaria pygmaea, L. [6]; 0.0320 kg/ha)
7.5: CYPSE ([8]; 0.0320 kg/ha)
3.0: herbicidal effect rating, ORYSAT (rice tolerance) ([3]; Rate 0.0320 kg/ha)
7.0: herbicidal effect rating, ECHORC ([1]; Rate 0.0620 kg/ha) | herbicidal effect rating, ORYSAT (rice tolerance) ([3]; Rate 0.1250 kg/ha) | herbicidal effect rating, ORYSAT (rice tolerance) ([3]; Rate 0.2500 kg/ha) | ORYSAT ([9]; 0.1250 kg/ha) | herbicidal effect rating, CYPIR (Cyperus iria [11]; Rate 0.0620 kg/ha)
2.0: herbicidal effect rating, MOOVA ([7]; Rate 0.1250 kg/ha) | herbicidal effect rating, CYPSE ([10]; Rate 0.0620 kg/ha)

Reference: patent publication EP0908457B1, “3-(1,2-benzisothiazol- and isoxazol-5-Y1)-2,4(1H,3H)-pyrimidinedione or thione and 3-(1,2-benzisothiazol- and isoxazol-5-y1)-4(3H)-pyrimidinone or thione herbicidal agents” (BASF AKTIENGESELLSCHAFT, priority 1997, dated 1999)
